Data from patent publication US20260325533A1, “CDK INHIBITOR COMPOUNDS” (ALEKSIA THERAPEUTICS, INC., priority 2023, published 2026).
Read-outs that look alike come from different tables or passages of the source.

Legend:
Format in all cases: biochemical
CDK2/CCNE1 = CDK2/CCNE1 (Homo sapiens, UniProt P24941); assay: CDK2 homogeneous time-resolved fluorescence (HTRF) kinase assay; conditions: CDK2/CCNE
Summary of the method: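 Compounds were titrated 11-point, half-log from typically 10 μM against 3 nM CDK2/cyclin E1 at 1 mM ATP, with a 20 min enzyme preincubation. Phosphorylation of 50 nM ULight-4E-BP1 peptide over 60 min at 23 °C was detected by europium anti-phospho antibody TR-FRET.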

CDK6/CCND1 = CDK6/CCND1 (Homo sapiens, UniProt Q00534); assay: CDK6 homogeneous time-resolved fluorescence (HTRF) kinase assay; conditions: CDK6/CCND
Chain of CDK6/CCND1 (Q00534 whole entry): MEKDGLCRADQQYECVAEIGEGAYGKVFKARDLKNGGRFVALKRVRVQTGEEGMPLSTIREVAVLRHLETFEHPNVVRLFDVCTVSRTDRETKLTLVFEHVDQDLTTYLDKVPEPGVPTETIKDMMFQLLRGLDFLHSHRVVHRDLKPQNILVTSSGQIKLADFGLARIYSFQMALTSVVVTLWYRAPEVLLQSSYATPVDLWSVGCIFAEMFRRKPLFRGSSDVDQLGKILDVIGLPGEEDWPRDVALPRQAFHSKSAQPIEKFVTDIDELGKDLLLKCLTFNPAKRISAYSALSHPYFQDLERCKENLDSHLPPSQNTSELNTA
Chain of CDK6/CCND1 (P24385 whole entry partner): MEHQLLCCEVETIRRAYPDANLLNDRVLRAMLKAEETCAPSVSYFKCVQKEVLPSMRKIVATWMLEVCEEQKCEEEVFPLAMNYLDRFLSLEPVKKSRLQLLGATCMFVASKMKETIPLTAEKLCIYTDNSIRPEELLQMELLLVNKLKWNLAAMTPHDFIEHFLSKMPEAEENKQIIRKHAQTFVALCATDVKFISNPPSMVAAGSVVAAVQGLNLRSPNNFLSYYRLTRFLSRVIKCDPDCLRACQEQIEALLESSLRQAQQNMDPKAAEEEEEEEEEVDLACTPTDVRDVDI
Summary of the method: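 Enzyme pre-incubated 20 min at 23 °C with compound, then reacted 60 min at 23 °C with 1 mM ATP and 50 nM ULight-4E-BP1 (Thr37/46) peptide; 1 nM enzyme, 1% DMSO. EDTA-stopped, Eu-anti-phospho antibody TR-FRET read (665 nm or 665/615 ratio); 11-point half-log titration from 10 μM gave IC50.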

CDK4/CCND3 = CDK4/CCND3 (Homo sapiens, UniProt P11802); assay: CDK4 homogeneous time-resolved fluorescence (HTRF) kinase assay; conditions: CDK4/CCND
Chain of CDK4/CCND3 (P11802 whole entry): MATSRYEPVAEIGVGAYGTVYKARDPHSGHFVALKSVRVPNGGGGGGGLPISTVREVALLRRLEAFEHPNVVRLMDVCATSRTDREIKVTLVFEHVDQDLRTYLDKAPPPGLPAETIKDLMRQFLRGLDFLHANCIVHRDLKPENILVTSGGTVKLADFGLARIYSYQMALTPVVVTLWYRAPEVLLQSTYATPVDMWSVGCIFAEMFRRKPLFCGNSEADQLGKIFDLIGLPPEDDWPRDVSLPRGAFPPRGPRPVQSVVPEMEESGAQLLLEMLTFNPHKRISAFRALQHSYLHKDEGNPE
Chain of CDK4/CCND3 (P30281 whole entry partner): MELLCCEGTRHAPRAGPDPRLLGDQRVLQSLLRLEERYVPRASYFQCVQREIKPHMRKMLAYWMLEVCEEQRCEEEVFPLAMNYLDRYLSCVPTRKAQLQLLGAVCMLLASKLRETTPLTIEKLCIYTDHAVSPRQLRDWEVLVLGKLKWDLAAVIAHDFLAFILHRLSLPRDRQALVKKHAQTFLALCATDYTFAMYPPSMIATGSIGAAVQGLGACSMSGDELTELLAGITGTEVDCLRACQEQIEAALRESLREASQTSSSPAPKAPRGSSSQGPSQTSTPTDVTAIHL
Summary of the method: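 CDK4/CCND3 at 1.5 nM was preincubated with compound for 20 min at 23 °C, then reacted for 60 min with 1 mM ATP and 50 nM ULight-4E-BP1 (Thr37/46) peptide. The reaction was stopped with EDTA, and phosphorylation was read by HTRF with a Eu-anti-phospho antibody. IC50 values came from 11-point half-log titrations, typically from 10 μM.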

CDK1/CCNB1 = CDK1/CCNB1 (Homo sapiens, UniProt P06493); assay: CDK1 homogeneous time-resolved fluorescence (HTRF) kinase assay; conditions: CDK1/CCNB
Chain of CDK1/CCNB1 (P06493 whole entry): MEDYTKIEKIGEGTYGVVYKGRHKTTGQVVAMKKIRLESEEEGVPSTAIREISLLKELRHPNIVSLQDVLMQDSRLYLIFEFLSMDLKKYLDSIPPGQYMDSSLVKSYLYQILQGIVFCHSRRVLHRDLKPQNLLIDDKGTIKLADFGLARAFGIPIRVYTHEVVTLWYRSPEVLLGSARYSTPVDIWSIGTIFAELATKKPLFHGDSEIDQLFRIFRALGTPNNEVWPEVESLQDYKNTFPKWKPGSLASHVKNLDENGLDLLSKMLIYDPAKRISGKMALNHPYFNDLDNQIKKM
Chain of CDK1/CCNB1 (P14635 whole entry partner): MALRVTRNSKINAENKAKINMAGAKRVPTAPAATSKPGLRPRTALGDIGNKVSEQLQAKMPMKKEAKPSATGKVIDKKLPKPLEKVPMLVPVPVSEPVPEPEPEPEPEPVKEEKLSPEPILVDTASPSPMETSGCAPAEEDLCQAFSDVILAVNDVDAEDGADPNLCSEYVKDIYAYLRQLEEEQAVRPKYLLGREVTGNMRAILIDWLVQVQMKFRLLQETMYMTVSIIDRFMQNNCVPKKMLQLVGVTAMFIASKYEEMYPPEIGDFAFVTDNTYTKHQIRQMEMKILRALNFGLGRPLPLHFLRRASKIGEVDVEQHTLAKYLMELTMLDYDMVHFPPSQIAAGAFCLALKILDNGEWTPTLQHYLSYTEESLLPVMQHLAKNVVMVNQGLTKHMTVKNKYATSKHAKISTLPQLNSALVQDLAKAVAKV
Summary of the method: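 Read-out: TR-FRET (Eu anti-phospho-4E-BP1 Thr37/46 antibody, 2 nM; 665 nm or 665/615 ratio) after 60 min phosphorylation of 50 nM ULight-peptide by 0.5 nM CDK1/CCNB1 at 1 mM ATP, 23 °C. Compound preincubated 20 min with enzyme; 1% DMSO.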

[1] = <25 nM, read-out: CDK2/CCNE IC50 <25 nM
[2] = <25 nM, read-out: CDK2/CCNE IC50, <25 nM
[3] = 25-250 nM, read-out: CDK4/CCND IC50, 25-250 nM
[4] = >250 nM, read-out: CDK1/CCNB IC50 >250 nM
[5] = >250 nM marked x, read-out: CDK6/CCND IC50 >250 nM
[6] = >250 nM marked x, read-out: CDK4/CCND IC50 >250 nM
[7] = >250 nM marked x, read-out: CDK1/CCNB IC50 >250 nM
[8] = x = IC50 <25 nM, read-out: CDK2/CCNE IC50 (<25 nM)
[9] = x = IC50 >250 nM, read-out: CDK6/CCND IC50 (>250 nM column)
[10] = x = IC50 >250 nM, read-out: CDK4/CCND IC50 (>250 nM column)
[11] = x = IC50 >250 nM, read-out: CDK1/CCNB IC50 (>250 nM column)
[12] = >250 nM, 1 mM ATP, read-out: CDK6/CCND IC50, >250 nM
[13] = >250 nM, read-out: CDK4/CCND IC50, >250 nM
[14] = x = IC50 25-250 nM, read-out: CDK2/CCNE IC50 (25-250 nM)

In the case of `CS(=O)(=O)N1CCC(Nc2cc3c(N4CCCC(C#N)C4)nccc3cn2)CC1` (racemic) [Ex 39, 1-(7-((1-(methylsulfonyl)piperidin-4-yl)amino)-2,6-naphthyridin-1-yl)piperidine-3-carbonitrile], the IC50 (CDK2/CCNE1; [1]) is reported as less than 25 nM, the IC50 (CDK6/CCND1; <25 nM, read-out: CDK6/CCND IC50 <25 nM) is reported as less than 25 nM and the IC50 (CDK4/CCND3; 25-250 nM marked x, read-out: CDK4/CCND IC50 25-250 nM) is reported as 25 to 250 nM. The IC50 (CDK1/CCNB1; 25-250 nM marked x, read-out: CDK1/CCNB IC50 25-250 nM) was 25 to 250 nM.
`Cc1c(-c2nccc3cnc(Nc4ccc(S(=O)(=O)NC5CCNCC5)cc4)cc23)ccc2c1cnn2CC(C)(C)O` [Ex 764, 4-((5-(1-(2-hydroxy-2-methylpropyl)-4-methyl-1H-indazol-5-yl)-2,6-naphthyridin-3-yl)amino)-N-(piperidin-4-yl)benzenesulfonamide] showed an IC50 (CDK2/CCNE1; [2]) of less than 25 nM, an IC50 (CDK6/CCND1; 25-250 nM, 1 mM ATP, read-out: CDK6/CCND IC50, 25-250 nM) of 25 to 250 nM and an IC50 (CDK4/CCND3; [3]) of 25 to 250 nM. The IC50 (CDK1/CCNB1; [4]) was greater than 250 nM.
Work on `CC#Cc1nccc2cnc(Nc3ccc(S(C)(=O)=O)cc3)cc12` [Example 7, N-(4-(methylsulfonyl)phenyl)-5-(prop-1-yn-1-yl)-2,6-naphthyridin-3-amine] yielded an IC50 (CDK2/CCNE1; [1]) of less than 25 nM, an IC50 (CDK6/CCND1; [5]) greater than 250 nM and an IC50 (CDK4/CCND3; [6]) greater than 250 nM. The IC50 (CDK1/CCNB1; [7]) was greater than 250 nM.
`Cc1cc(S(C)(=O)=O)ccc1Nc1cc2c(C#Cc3ccc4c(c3)NC(=O)C43CC3)nccc2cn1` [Ex 351, 6'-((7-((2-methyl-4-(methylsulfonyl)phenyl)amino)-2,6-naphthyridin-1-yl)ethynyl)spiro[cyclopropane-1,3'-indolin]-2'-one] gave an IC50 (CDK2/CCNE1; [8]) of less than 25 nM, an IC50 (CDK6/CCND1; [9]) greater than 250 nM and an IC50 (CDK4/CCND3; [10]) greater than 250 nM. For the same molecule, the IC50 (CDK1/CCNB1; [11]) was greater than 250 nM.
For `Cc1c(-c2nccc3cnc(Nc4ccc(S(=O)(=O)Nc5cc(N6CCOCC6)ccn5)cc4)cc23)ccc2c1cnn2CC(O)(C(F)(F)F)C(F)(F)F` [Ex 741, 4-((5-(4-methyl-1-(3,3,3-trifluoro-2-hydroxy-2-(trifluoromethyl)propyl)-1H-indazol-5-yl)-2,6-naphthyridin-3-yl)amino)-N-(4-morpholinopyridin-2-yl)benzenesulfonamide], the IC50 (CDK2/CCNE1; [2]) was less than 25 nM, the IC50 (CDK6/CCND1; [12]) was greater than 250 nM and the IC50 (CDK4/CCND3; [13]) was greater than 250 nM. The IC50 (CDK1/CCNB1; [4]) was greater than 250 nM.
For `Cc1cnc(NS(=O)(=O)c2ccc(Nc3cc4c(-c5ccc6c(cnn6CC(O)(C(F)(F)F)C(F)(F)F)c5C)nccc4cn3)cc2)cc1N1CCOCC1` [Ex 701, 4-((5-(4-methyl-1-(3,3,3-trifluoro-2-hydroxy-2-(trifluoromethyl)propyl)-1H-indazol-5-yl)-2,6-naphthyridin-3-yl)amino)-N-(5-methyl-4-morpholinopyridin-2-yl)benzenesulfonamide], the IC50 (CDK2/CCNE1; [2]) was less than 25 nM, the IC50 (CDK6/CCND1; [12]) was greater than 250 nM and the IC50 (CDK4/CCND3; [13]) was greater than 250 nM. For the same molecule, the IC50 (CDK1/CCNB1; [4]) was greater than 250 nM.
`CC(C)S(=N)(=O)c1ccc(Nc2cc3c(C#Cc4ccc5c(c4)NC(=O)C5(C)C)nccc3cn2)cc1` (single isomer, unassigned) [Ex 455, 3,3-dimethyl-6-((7-((4-(propan-2-ylsulfonimidoyl)phenyl)amino)-2,6-naphthyridin-1-yl)ethynyl)indolin-2-one] gave an IC50 (CDK2/CCNE1; [8]) of less than 25 nM, an IC50 (CDK6/CCND1; x = IC50 25-250 nM, read-out: CDK6/CCND IC50 (25-250 nM)) of 25 to 250 nM and an IC50 (CDK4/CCND3; x = IC50 25-250 nM, read-out: CDK4/CCND IC50 (25-250 nM)) of 25 to 250 nM. For the same molecule, the IC50 (CDK4/CCND3; x = IC50 <25 nM, read-out: CDK4/CCND IC50 (<25 nM)) was less than 25 nM and the IC50 (CDK1/CCNB1; x = IC50 25-250 nM, read-out: CDK1/CCNB IC50 (25-250 nM)) was 25 to 250 nM.
Work on `CS(=O)(=O)c1ccc(Nc2cc3c(C#CC4(O)CCCNC4)nccc3cn2)cc1` (stereo not drawn) [Example 699, 3-((7-((4-(methylsulfonyl)phenyl)amino)-2,6-naphthyridin-1-yl)ethynyl)piperidin-3-ol] yielded an IC50 (CDK2/CCNE1; [2]) of less than 25 nM, an IC50 (CDK6/CCND1; [12]) greater than 250 nM and an IC50 (CDK4/CCND3; [3]) of 25 to 250 nM. For the same molecule, the IC50 (CDK1/CCNB1; [4]) was greater than 250 nM.
`CS(=O)(=O)c1ccc(Nc2cc3c(C#Cc4ccc(N)nc4)nccc3cn2)cc1` [Ex 584, 5-((6-aminopyridin-3-yl)ethynyl)-N-(4-(methylsulfonyl)phenyl)-2,6-naphthyridin-3-amine] showed an IC50 (CDK2/CCNE1; [14]) of 25 to 250 nM, an IC50 (CDK6/CCND1; [9]) greater than 250 nM and an IC50 (CDK4/CCND3; [10]) greater than 250 nM. It also gave an IC50 (CDK1/CCNB1; [11]) greater than 250 nM.
Molecule `CC(C)S(=N)(=O)c1ccc(Nc2cc3c(C#Cc4ccc(=O)[nH]n4)nccc3cn2)cc1` (racemic) [Example 431, 6-((7-((4-(propan-2-ylsulfonimidoyl)phenyl)amino)-2,6-naphthyridin-1-yl)ethynyl)pyridazin-3(2H)-one] has an IC50 (CDK2/CCNE1; [8]) of less than 25 nM, an IC50 (CDK6/CCND1; [9]) greater than 250 nM and an IC50 (CDK4/CCND3; [10]) greater than 250 nM. It also gave an IC50 (CDK1/CCNB1; [11]) greater than 250 nM.
With `CC(C)(O)c1nc2ccc(C#Cc3nccc4cnc(Nc5ccc(S(C)(=O)=O)cc5)cc34)cc2[nH]1` [Ex 542, 2-(6-((7-((4-(methylsulfonyl)phenyl)amino)-2,6-naphthyridin-1-yl)ethynyl)-1H-benzo[d]imidazol-2-yl)propan-2-ol] the IC50 (CDK2/CCNE1; [8]) was less than 25 nM, the IC50 (CDK6/CCND1; [9]) was greater than 250 nM and the IC50 (CDK4/CCND3; [10]) was greater than 250 nM. It also gave an IC50 (CDK1/CCNB1; [11]) greater than 250 nM.
`Cc1ncccc1C#Cc1nccc2cnc(Nc3ccc(S(C)(=O)=O)cc3)cc12` [Ex 565, 5-((2-methylpyridin-3-yl)ethynyl)-N-(4-(methylsulfonyl)phenyl)-2,6-naphthyridin-3-amine] gave an IC50 (CDK2/CCNE1; [14]) of 25 to 250 nM, an IC50 (CDK6/CCND1; [9]) greater than 250 nM and an IC50 (CDK4/CCND3; [10]) greater than 250 nM. For the same molecule, the IC50 (CDK1/CCNB1; [11]) was greater than 250 nM.
`CCC1(CC)C(=O)Nc2cc(C#Cc3nccc4cnc(Nc5ccc(S(=N)(=O)CC(F)(F)F)cc5C)cc34)ccc21` (single isomer, unassigned) [Ex 284, 3,3-diethyl-6-((7-((2-methyl-4-(2,2,2-trifluoroethylsulfonimidoyl)phenyl)amino)-2,6-naphthyridin-1-yl)ethynyl)indolin-2-one] showed an IC50 (CDK2/CCNE1; 25-250 nM marked x, read-out: CDK2/CCNE IC50 25-250 nM) of 25 to 250 nM, an IC50 (CDK6/CCND1; [5]) greater than 250 nM and an IC50 (CDK4/CCND3; [6]) greater than 250 nM. The IC50 (CDK1/CCNB1; [7]) was greater than 250 nM.
For `CNS(=O)(=O)c1ccc(Nc2cc3c(-c4ccc5c(cnn5CC(O)(C(F)(F)F)C(F)(F)F)c4C)nccc3cn2)cc1` [Example 696, N-methyl-4-((5-(4-methyl-1-(3,3,3-trifluoro-2-hydroxy-2-(trifluoromethyl)propyl)-1H-indazol-5-yl)-2,6-naphthyridin-3-yl)amino)benzenesulfonamide], the IC50 (CDK2/CCNE1; [2]) was less than 25 nM, the IC50 (CDK6/CCND1; [12]) was greater than 250 nM and the IC50 (CDK4/CCND3; [13]) was greater than 250 nM. For the same molecule, the IC50 (CDK1/CCNB1; [4]) was greater than 250 nM.
Work on `CN1CCC(c2nccc3cnc(Nc4ccc(S(C)(=O)=O)cc4)cc23)C1` (racemic) [Ex 229, 5-(1-methylpyrrolidin-3-yl)-N-(4-(methylsulfonyl)phenyl)-2,6-naphthyridin-3-amine] yielded an IC50 (CDK2/CCNE1; >250 nM marked x, read-out: CDK2/CCNE IC50 >250 nM) greater than 250 nM, an IC50 (CDK6/CCND1; [5]) greater than 250 nM and an IC50 (CDK4/CCND3; [6]) greater than 250 nM. It also gave an IC50 (CDK1/CCNB1; [7]) greater than 250 nM.
With `Cc1c(-c2nccc3cnc(Nc4ccc(S(=O)(=O)Nc5cc(C(F)(F)F)ccn5)cc4)cc23)ccc2c1cnn2CC(O)(C(F)(F)F)C(F)(F)F` [Ex 740, 4-((5-(4-methyl-1-(3,3,3-trifluoro-2-hydroxy-2-(trifluoromethyl)propyl)-1H-indazol-5-yl)-2,6-naphthyridin-3-yl)amino)-N-(4-(trifluoromethyl)pyridin-2-yl)benzenesulfonamide] the IC50 (CDK2/CCNE1; >250 nM, read-out: CDK2/CCNE IC50, >250 nM) was greater than 250 nM, the IC50 (CDK6/CCND1; [12]) was greater than 250 nM and the IC50 (CDK4/CCND3; [13]) was greater than 250 nM. It also gave an IC50 (CDK1/CCNB1; [4]) greater than 250 nM.
Work on `Cc1c(-c2nccc3cnc(Nc4ccc(NS(=O)(=O)c5ccc(N6CCN(C)CC6)cc5)cc4)cc23)ccc2c1cnn2CC(C)(C)O` [Ex 785, N-(4-((5-(1-(2-hydroxy-2-methylpropyl)-4-methyl-1H-indazol-5-yl)-2,6-naphthyridin-3-yl)amino)phenyl)-4-(4-methylpiperazin-1-yl)benzenesulfonamide] yielded an IC50 (CDK2/CCNE1; [2]) of less than 25 nM, an IC50 (CDK6/CCND1; [12]) greater than 250 nM and an IC50 (CDK4/CCND3; [13]) greater than 250 nM. It also gave an IC50 (CDK1/CCNB1; [4]) greater than 250 nM.
